In patent US20250101038A1, “COMPOUNDS” (priority 2021, published 2025):
Where “and” joins values, the source holds several entries; their conditions need not be identical. Identical values can stand only once. Like-named read-outs stand apart in the source and are kept apart here.

Assays:
5-HT2C receptor = target: T1, 5-HT2C receptor (Homo sapiens, UniProt P28335); test: cell-based; conditions: agonist activity, Ca2+ flux, HEK293 cells
T1 construct: host or cells: HEK293
T1 sequence (P28335 33-458): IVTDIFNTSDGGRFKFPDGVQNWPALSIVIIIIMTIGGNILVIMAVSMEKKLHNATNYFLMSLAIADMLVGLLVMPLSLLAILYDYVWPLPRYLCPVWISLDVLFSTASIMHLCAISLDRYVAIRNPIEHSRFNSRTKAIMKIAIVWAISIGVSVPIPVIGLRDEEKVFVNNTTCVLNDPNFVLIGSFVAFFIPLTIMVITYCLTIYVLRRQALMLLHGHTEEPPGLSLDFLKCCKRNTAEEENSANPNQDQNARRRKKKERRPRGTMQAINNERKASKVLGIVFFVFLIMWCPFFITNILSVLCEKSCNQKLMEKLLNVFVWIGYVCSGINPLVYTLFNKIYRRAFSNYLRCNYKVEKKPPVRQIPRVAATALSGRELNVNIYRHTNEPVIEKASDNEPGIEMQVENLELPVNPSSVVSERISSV

5-HT2B receptor = target: T2, 5-HT2B receptor (Homo sapiens, UniProt P41595); test: cell-based; conditions: agonist activity, Ca2+ flux, CHO-K1 cells
T2 construct: host or cells: CHO-K1
T2 sequence (P41595 whole entry): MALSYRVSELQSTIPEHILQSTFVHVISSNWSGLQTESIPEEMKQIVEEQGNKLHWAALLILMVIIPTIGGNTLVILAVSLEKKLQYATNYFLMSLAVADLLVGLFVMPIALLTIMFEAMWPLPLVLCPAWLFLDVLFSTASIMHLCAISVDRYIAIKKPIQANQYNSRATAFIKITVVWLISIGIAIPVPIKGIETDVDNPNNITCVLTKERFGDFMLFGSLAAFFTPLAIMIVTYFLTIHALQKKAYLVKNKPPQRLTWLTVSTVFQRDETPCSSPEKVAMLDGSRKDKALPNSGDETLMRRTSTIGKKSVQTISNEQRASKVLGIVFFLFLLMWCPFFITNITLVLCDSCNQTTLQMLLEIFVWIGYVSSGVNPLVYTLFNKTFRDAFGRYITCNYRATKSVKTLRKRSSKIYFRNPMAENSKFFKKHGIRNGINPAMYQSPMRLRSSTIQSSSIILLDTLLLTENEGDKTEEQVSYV

[1] = test system: ARS-TST mouse model of depression; test: Acute restraint stress tail suspension test (ARS-TST); format: in vivo; conditions: male ICR mice, intraperitoneal, tested 10 minutes after treatment
Procedure: Male ICR mice (23±3 g) were purchased from BioLASCO (Taipei, Taiwan) at 4-5 weeks of age and allowed 5-7 days to acclimate to the animal research facility at Pharmacology Discovery Services (Taipei, Taiwan). Mice were housed in groups of 10 in a large cage (47×25×15 cm) on a 12-hour light cycle (lights on: 0700) and provided ad libitum food and water except during acute restraint stress and tail-suspension testing. Temperature was maintained at 20-24° C., and all rooms (colony and testing rooms) had similar lighting intensity. All aspects of this work including housing, experimentation, and animal disposal were performed in accordance with the “Guide for the Care and Use of Laboratory Animals: Eighth Edition” (The National Academies Press, Washington, DC, 2011) in a facility accredited by the Association for Assessment and Accreditation of Laboratory Animal Care. […]
Tail Suspension Test (TST) Procedure: Mice were individually suspended on the edge of a shelf, 58 cm above a tabletop, using adhesive tape placed approximately 1 cm from the tip of the tail, for a total duration of 7 minutes. Using a stopwatch, the experimenters blinded to treatment groups recorded the duration of immobility (defined as hanging passively and motionless) during the 5 minutes spanning from 2-7 minutes. The data from 0-2 minutes was not recorded. […]

[2] = In vivo pharmacokinetics, plasma and brain exposure after IP dosing; design: species or system male C57BL/6 mice; conditions: for B:P Ratio, Individual / Plasma Concentration, Individual / concentration at 0.5 h / concentration at 0.083 h / concentration at 4 h / Kp at 0.083 h / Kp at 0.5 h / Kp at 4 h: 10 mg/kg; for Kp at 0.083 h / Kp at 0.5 h / Kp at 4 h: brain/plasma; for Cmax / Tmax / AUC(0-inf) / half-life: mouse, male C57BL/6 mice; for AUC(0-inf): read-out: Plasma AUC0-inf; for half-life: read-out: Apparent T1/2 (converted)
Procedure: The systemic exposure of selected examples was studied in non-fasted male C57BL/6 mice weighing between 18.9-25.5 g. Mice had access to food and water ad libitum throughout the pre- and post-dose sampling period.
On the day of dosing, the formulation of each compound was prepared by dissolving solid compound in phosphate buffer saline (50 mM) using vortexing, creating colourless solutions (pH 6.4-6.5) for each compound.
Compounds were dosed to mice by IP injection (10 mL/kg dose volume via a 27G needle; n=9 mice per compound) and blood samples were collected at 5 and 30 min; 1, 2 and 4 h post-dose (n=3 mice per time point for each compound). A maximum of three blood samples were obtained from each mouse, with plasma samples being taken via submandibular bleed (approximately 120 μL). Once collected, blood samples were centrifuged immediately, supernatant plasma was removed, and stored at −80° C. until analysis by LCMS. In addition, at the 5 and 30 min and 4 h post-dose time points, the whole brain was rapidly removed from the carcass soon after the blood collection. The whole brains were blotted to remove excess blood, placed into pre-weighed polypropylene vials, and weighed. The brains were snap frozen in dry ice and subsequently stored frozen (−80° C.) until analysis.
Concentrations of test compound in plasma and tissue samples were determined using an LCMS/MS method validated for linearity, accuracy, precision, matrix factor and recovery (Table 2). Test compound standard solutions were diluted from a concentrated stock solution (32 mM in H2O) using 50% can in H2O (v/v) and a calibration curve was prepared in a matched matrix to the test samples.
Plasma: The plasma calibration curve was prepared by spiking aliquots of blank mouse plasma (25 μL) with test compound standard solutions (5 μL) and internal standard solution (5 μL of diazepam, 5 μg/mL in 50% acetonitrile in water). Test plasma samples (25 μL) were thawed, mixed, and then spiked with internal standard solution (5 μL). Plasma protein precipitation was performed by addition of acetonitrile (3-fold volume ratio) and thorough vortex mixing. Samples were centrifuged (RCF=9391×g) for 3 minutes and the supernatant (90 μL) was collected for analysis.
Tissue: Pre-weighed tissue samples (brain) were homogenised using a glass rod in buffer containing an EDTA/potassium fluoride solution (0.1 M/4 mg/mL) as a stabilisation cocktail to minimise the potential for ex vivo degradation (3 mL cocktail/g tissue). The tissue homogenate was briefly centrifuged (RCF=79×g) for 10 seconds to separate the foam layer before transferring an aliquot of the tissue homogenate (200 μL) to a fresh Eppendorf tube for sample extraction. Calibration standards were prepared by spiking blank brain homogenate (200 μL) with the solution standards (10 μL) and the internal standard (10 μL). Study samples were similarly prepared, except that acetonitrile (10 μL) was added instead of solution standards to maintain the same volume. Protein precipitation was carried out by the addition of a 3-fold volume of acetonitrile, followed by vortex mixing and centrifugation (RCF=9391×g) for 3 min to recover the supernatant for analysis.
Replicate analysis: Triplicate analytical replicate (ARs) samples were prepared similarly to the standards for each sample type at three concentrations (50, 500 and 2,000 ng/ml) and repeat injections of these ARs were included throughout the analytical run to assess assay performance. The extraction of the test compound from the standards and ARs were conducted as described above.

[3] = 0.083 h, IP 10 mg/kg, individual mouse
[4] = 0.083 h, IP 10 mg/kg, individual mouse, read-out: Brain Parenchyma Concentration, Individual
[5] = 0.5 h, IP 10 mg/kg, individual mouse
[6] = 0.5 h, IP 10 mg/kg, individual mouse, read-out: Brain Parenchyma Concentration, Individual
[7] = 4 h, IP 10 mg/kg, individual mouse
[8] = 4 h, IP 10 mg/kg, individual mouse, read-out: Brain Parenchyma Concentration, Individual
[9] = male, C57BL/6, mouse, brain, ip, 0.083 h, n = 3, read-out: Brain Parenchyma Concentration, Mean ± SD
[10] = male, C57BL/6, mouse, brain, ip, 0.5 h, individual mouse, read-out: Brain Parenchyma Concentration, Individual
[11] = male, C57BL/6, mouse, brain, ip, 0.5 h, n = 3, read-out: Brain Parenchyma Concentration, Mean ± SD
[12] = male, C57BL/6, mouse, brain, ip, 4 h, n = 3, read-out: Brain Parenchyma Concentration, Mean ± SD
[13] = male, C57BL/6, mouse, ip, 0.083 h, individual mouse, read-out: B:P Ratio, Individual
[14] = male, C57BL/6, mouse, ip, 0.083 h, n = 3, read-out: B:P Ratio, Mean ± SD
[15] = male, C57BL/6, mouse, ip, 0.5 h, individual mouse, read-out: B:P Ratio, Individual
[16] = male, C57BL/6, mouse, ip, 0.5 h, n = 3, read-out: B:P Ratio, Mean ± SD
[17] = male, C57BL/6, mouse, ip, 4 h, individual mouse, read-out: B:P Ratio, Individual
[18] = male, C57BL/6, mouse, ip, 4 h, n = 3, read-out: B:P Ratio, Mean ± SD
[19] = male, C57BL/6, mouse, plasma, ip, 0.083 h, individual mouse, read-out: Plasma Concentration, Individual
[20] = male, C57BL/6, mouse, plasma, ip, 0.083 h, n = 3, read-out: Plasma Concentration, Mean ± SD
[21] = male, C57BL/6, mouse, plasma, ip, 0.5 h, individual mouse, read-out: Plasma Concentration, Individual
[22] = male, C57BL/6, mouse, plasma, ip, 0.5 h, n = 3, read-out: Plasma Concentration, Mean ± SD
[23] = male, C57BL/6, mouse, plasma, ip, 4 h, n = 3, read-out: Plasma Concentration, Mean ± SD

| SMILES | Emax (5-HT2C receptor) | Emax (5-HT2B receptor) | immobility time [1] | B:P Ratio, Individual [2, 3] | Plasma Concentration, Individual [2, 3] | concentration at 0.5 h [2, 4] | B:P Ratio, Individual [2, 5] | Plasma Concentration, Individual [2, 5] | concentration at 0.5 h [2, 6] | B:P Ratio, Individual [2, 7] | Plasma Concentration, Individual [2, 7] | concentration at 0.5 h [2, 8] | concentration at 0.083 h [2, 9] | concentration at 0.5 h [2, 10] | concentration at 0.5 h [2, 11] | concentration at 4 h [2, 12] | Kp at 0.083 h [2, 13] | Kp at 0.083 h [2, 14] | Kp at 0.5 h [2, 15] | Kp at 0.5 h [2, 16] | further results |
| --- | --- | --- | --- | --- | --- | --- | --- | --- | --- | --- | --- | --- | --- | --- | --- | --- | --- | --- | --- | --- | --- |
| CCN(C)CCc1c[nH]c2ccc(OC)c(C)c12 [Example P-37, N-ethyl-2-(5-methoxy-4-methyl-1H-indol-3-yl)-N-methylethan-1-amine] | 53.1% | 30.9% | decrease immobility time | 6.9 and 8.6 | 2.21 µM and 2.12 µM | 31.6 µM and 15.2 µM and 18.1 µM | 18 and 16 | 1.15 µM and 1.48 µM | 20.6 µM and 24.3 µM | 15 | 0.0091 µM and 0.0104 µM | 0.134 µM and 0.152 µM | 21.6 ± 8.76 µM | 25.9 µM | 23.6 ± 2.74 µM | 0.129 ± 0.0255 µM | 9.4 | 8.3 ± 1.3 | 20 | 18 ± 2 | concentration at 4 h ([2]; male, C57BL/6, mouse, brain, ip, 4 h, individual mouse, read-out: Brain Parenchyma Concentration, Individual): 0.102 µM; Kp at 4 h [2, 17]: 13; Kp at 4 h [2, 18]: 14 ± 1.2; concentration at 0.083 h [2, 19]: 3.36 µM; concentration at 0.083 h [2, 20]: 2.56 ± 0.0691 µM; concentration at 0.5 h [2, 21]: 1.28 µM; concentration at 0.5 h [2, 22]: 1.3 ± 0.162 µM; concentration at 4 h ([2]; male, C57BL/6, mouse, plasma, ip, 4 h, individual mouse, read-out: Plasma Concentration, Individual): 0.0081 µM; concentration at 4 h [2, 23]: 0.0092 ± 0.0012 µM; Cmax ([2]; plasma, IP 10 mg/kg): 2.56 µM; Tmax ([2]; plasma, IP 10 mg/kg): 4.98 min; AUC(0-inf) ([2]; plasma, IP 10 mg/kg): 1.72 µM·h; half-life ([2]; IP 10 mg/kg, plasma): 30 min |
| CCN(C)CCc1c[nH]c2c(C)cc(OC)cc12 [Example P-51, N-ethyl-2-(5-methoxy-7-methyl-1H-indol-3-yl)-N-methylethan-1-amine] | 57.3% | 0.85% | decrease immobility time | 6.1 and 4.0 | 5.38 µM and 7.55 µM | 33.0 µM and 30.4 µM | 11 and 9.2 | 4.49 µM and 3.79 µM | 49.3 µM and 35.0 µM | 8.4 and 8.7 | 0.0254 µM and 0.0505 µM and 0.111 µM | 0.230 µM and 0.424 µM and 0.958 µM | 30.7 ± 2.2 µM | 25.5 µM | 36.6 ± 12 µM | 0.538 ± 0.377 µM | 4.5 | 4.9 ± 1.1 | 7.4 | 9.2 ± 1.8 | concentration at 0.083 h ([2]; male, C57BL/6, mouse, brain, ip, 0.083 h, individual mouse, read-out: Brain Parenchyma Concentration, Individual): 28.6 µM; Kp at 4 h [2, 17]: 9.1; Kp at 4 h [2, 18]: 8.7 ± 0.33; concentration at 0.083 h [2, 19]: 6.37 µM; concentration at 0.083 h [2, 20]: 6.43 ± 1.09 µM; concentration at 0.5 h [2, 21]: 3.46 µM; concentration at 0.5 h [2, 22]: 3.91 ± 0.529 µM; concentration at 4 h [2, 23]: 0.0622 ± 0.0439 µM; Cmax ([2]; plasma, IP 10 mg/kg): 6.43 µM; Tmax ([2]; plasma, IP 10 mg/kg): 4.98 min; AUC(0-inf) ([2]; plasma, IP 10 mg/kg): 5.39 µM·h; half-life ([2]; IP 10 mg/kg, plasma): 36 min |
